Data reported in patent US20230026616A1, “PYRIMIDOIMIDAZOLE COMPOUNDS USED AS DNA-PK INHIBITORS” (MEDSHINE DISCOVERY INC., priority 2019, published 2023).

Experiment: Pharmacokinetic evaluation in mice (2), plasma
Format: in vivo, Balb/c male mice
Description: IV: intravenous injection; PO: oral; C0: instantaneous […] concentration after intravenous injection; Cmax: highest plasma concentration after administration; Tmax: time required to reach peak of drug concentration after administration; T1/2: time required for the plasma drug concentration to decrease by half, Vdss: apparent volume of distribution, refers to the proportional constant of the drug dose in vivo and the blood drug concentration when the drug reaches a dynamic equilibrium in vivo. Cl: clearance rate, refers to the […] cleared from the body per unit time; Tlast: time at the last detection point; AUC0-last: area under the drug-time curve, refers to the area covered by the plasma concentration curve and the time axis; F: a measure of the speed and degree of drug absorption into the blood circulation, which is an important indicator for evaluating the degree of drug absorption.
Test compounds were mixed with […]/50% polyethylene glycol 200/40% water, vortexed and sonicated to prepare a nearly clear solution of 0.4 mg/mL (compound 5), then filtered through a microporous membrane for next step. Balb/c male mice of 18 to 20 grams were selected and administered intravenously with the candidate compound solution at a dose of 2 mg/kg. Test compounds were mixed with 10% dimethyl sulfoxide/50% polyethylene glycol 200/40% water, vortexed and sonicated to prepare a nearly clear solution of 1 mg/mL, then filtered with a microporous membrane for next step. Balb/c male mice of 18 to 20 grams were selected and orally administered with the candidate compound solution at a dose of 10 mg/kg. Whole blood was collected for a certain period of time, and plasma was prepared, then drug concentration was detected by LC-MS/MS method, and pharmacokinetic parameters were calculated by Phoenix WinNonlin software (Pharsight, USA).

[1] = male, Balb/c, 2 mg/kg, mouse plasma, IV 2 mpk
[2] = male, Balb/c, 10 mg/kg, mouse plasma, PO 10 mpk

Cc1cc2ncnn2cc1Nc1ncc2c(n1)n(N1CC3CCC(C1)O3)c(=O)n2C [Compound 5]
AUC(0-t) [1]: 3.45 µM·h | C0 [1]: 4.74 µM | clearance [1]: 23.7 mL/min/kg | half-life [1]: 44 min | Vd (male, Balb/c, 2 mg/kg, mouse plasma, IV 2 mpk, read-out: Vdss): 1.07 L/kg | AUC(0-t) [2]: 23.2 µM·h | Cmax [2]: 11.4 µM | Tmax [2]: 30 min | half-life [2]: 51 min | Tlast (mouse plasma, IV 2 mpk): 8 h | Tlast (mouse plasma, PO 10 mpk): 10 h | F (mouse, PO 10 mpk vs IV 2 mpk): 134%
